{
  "source": "patent US9540702B2",
  "about": "“Stabilization of enzymes with stable coenzymes” (Roche Diabetes Care, Inc., priority 2009, dated 2017)",
  "key": {"[1]": {"molecular_target": "GlucDH_E170K_K252L (GlucDH-mut2) (Bacillus subtilis, UniProt P12310, A229V/A236S/E170K/Q252L)", "assay": "Residual activity of GlucDH mutant 2 after storage with coenzyme", "format": "biochemical", "conditions": "24 weeks at 32° C. and 85% relative air humidity", "procedure": "carbaNAD (FIG. 1A) or NAD were added to the glucose-specific GlucDH. These formulations were each applied to Pokalon foils (Lonza) and, after drying, stored under warm and humid conditions (32° C., 85% relative air humidity). Subsequently, the reaction kinetics and the function curve were determined at regular intervals. In parallel at each of the measurement times a cNAD/NAD analysis and a determination of the residual activity of the enzyme were carried out.\nIf a mutant is used instead of the wild-type enzyme (from Bacillus subtilis), it is possible to further increase the residual activity of GlucDH. After 24 weeks storage at 32° C. and 85% relative air humidity in the presence of cNAD, the residual activity of a mutant GlucDH_E96G_E170K with the amino acid substitutions glutamic acid→glycine at position 96 and glutamic acid→lysine at position 170 (GlucDH-mut1) of the wild-type enzyme is about 70%, whereas the residual activity of a mutant GlucDH_E170K_K252L with the amino acid substitutions glutamic acid→lysine at position 170 and lysine→leucine at position 252 (GlucDH-mut2) is about 50% (FIG. 8)."}, "[2]": {"molecular_target": "T1, alcohol dehydrogenase (ADH) (Saccharomyces cerevisiae, UniProt P00330)", "T1 sequence (P00330 1-348)": "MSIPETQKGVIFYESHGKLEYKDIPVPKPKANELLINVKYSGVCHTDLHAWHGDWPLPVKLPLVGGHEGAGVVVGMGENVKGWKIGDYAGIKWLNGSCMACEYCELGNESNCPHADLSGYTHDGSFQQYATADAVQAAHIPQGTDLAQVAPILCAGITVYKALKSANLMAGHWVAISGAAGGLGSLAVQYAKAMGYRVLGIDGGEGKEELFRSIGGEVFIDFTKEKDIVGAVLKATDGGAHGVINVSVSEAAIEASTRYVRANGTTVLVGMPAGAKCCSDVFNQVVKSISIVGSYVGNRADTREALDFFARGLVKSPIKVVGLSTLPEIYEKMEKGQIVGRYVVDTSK", "assay": "Storage of alcohol dehydrogenase detection solution with NAD or cNAD (Tables 1 and 2)", "format": "biochemical, yeast", "procedure": "cNAD or NAD was added to a detection solution containing alcohol dehydrogenase. These mixtures were stored at 2-8° C. and at 35° C. Subsequently, the stability of alcohol dehydrogenase (ADH) was checked at regular intervals and the residual activity of the enzyme was determined.\nIf alcohol dehydrogenase is stored together with native NAD or with cNAD for several months at 2-8° C. in a refrigerator, then one observes in the case of […] a considerable decrease in enzyme activity over the entire storage period. Whereas the difference after 2 weeks storage is still slight, there is an approximately 20% higher residual activity of alcohol dehydrogenase after 12 months storage in the presence of 16 mM cNAD compared to a corresponding solution containing 16 mM NAD as the coenzyme.\nAccordingly, the residual activity of alcohol dehydrogenase can be increased somewhat in samples that have been stored for 2 weeks at 2-8° C. by increasing the concentration of cNAD."}, "diaphorase": {"tested_on": "diaphorase", "assay": "Diaphorase activity extracted from blood glucose test strips after storage", "format": "biochemical", "conditions": "blood glucose test strips stored at 32° C. and 30-70% relative air humidity", "procedure": "A composition which, among others, contained glucose dehydrogenase (GlucDH), carbaNAD, diaphorase, nitrosoaniline and phosphomolybdic acid was used to determine blood glucose. Test strips were obtained by applying a first formulation to a polycarbonate foil using a doctor blade (layer height 100 μm), drying the first layer, applying a second formulation to the first layer (doctor blade gap 30 μm), and drying the second layer. The test strips were stored at 32° C. and 30-70% relative air humidity."}, "[3]": {"molecular_target": "Glucose dehydrogenase mutant2 (Bacillus subtilis, UniProt P12310, A229V/A236S/E170K/Q252L)", "assay": "Enzyme activity in test strips stored up to 18 weeks (Table 6)", "format": "biochemical", "procedure": "In order to evaluate the stabilization of glucose dehydrogenase and diaphorase by carbaNAD, a number of test strips were prepared in analogy to Example 5.\nThe test strips were stored over a period of 18 weeks at temperatures of 5° C. (KS, refrigerator), 25° C. (RT), 30° C. (GT), 35° C. (DT) and 45° C. (HT), and the enzyme activity in the test strips was determined at the start of storage (0 weeks), after 6 weeks, after 9 weeks, after 12 weeks and after 18 weeks. The results are shown in Table 6 (glucose dehydrogenase) and in Table 7 (diaphorase)."}, "alcohol dehydrogenase": {"molecular_target": "T2, alcohol dehydrogenase (Saccharomyces cerevisiae, UniProt P00330)", "T2 sequence (P00330 1-348)": "T1 sequence (P00330 1-348)", "assay": "DSC of coenzyme binding", "conditions": "3.8 mM ligand; 0.75M glycine sodium pyrophosphate, pH 9.0"}, "D-lactate dehydrogenase": {"molecular_target": "D-lactate dehydrogenase (Lactobacillus delbrueckii subsp. bulgaricus, UniProt P26297)", "assay": "DSC of coenzyme binding", "conditions": "3.8 mM ligand; 0.1M Tris buffer, pH 7.5"}, "[4]": {"tested_on": "L-lactate dehydrogenase (porcine)", "assay": "DSC of coenzyme binding", "conditions": "3.8 mM ligand; 0.1 M Tris buffer, pH 8.5"}, "malate dehydrogenase": {"tested_on": "malate dehydrogenase", "conditions": "3.8 mM ligand; 0.5M carbonate buffer, pH 10.0"}, "[5]": {"conditions": "16 mmol/l coenzyme, initial value"}},
  "data": [
    {"compound": "NC(=O)c1ccc[n+]([C@@H]2C[C@H](COP(=O)([O-])OP(=O)(O)OC[C@H]3O[C@@H](n4cnc5c(N)ncnc54)[C@H](O)[C@@H]3O)[C@@H](O)[C@H]2O)c1", "note": "[carbaNAD]", "values": [
      {"measurement": "residual activity of GlucDH-mut2", "setting": "[1]", "value": "about 50%"},
      {"measurement": "ADH activity after 2 weeks at 2-8° C.", "setting": "[2]; 16 mmol/l coenzyme, 2 weeks at 2-8° C.", "value": "100.7 % of initial value"},
      {"measurement": "ADH activity after 3 months at 2-8° C.", "setting": "[2]; 16 mmol/l coenzyme, 3 months at 2-8° C.", "value": "91.3 % of initial value"},
      {"measurement": "ADH activity after 7.5 months at 2-8° C.", "setting": "[2]; 16 mmol/l coenzyme, 7.5 months at 2-8° C.", "value": "95.6 % of initial value"},
      {"measurement": "ADH activity after 10 months at 2-8° C.", "setting": "[2]; 16 mmol/l coenzyme, 10 months at 2-8° C.", "value": "88.2 % of initial value"},
      {"measurement": "ADH activity after 12 months at 2-8° C.", "setting": "[2]; 16 mmol/l coenzyme, 12 months at 2-8° C.", "value": "83.8 % of initial value"},
      {"measurement": "ADH activity % of weighed amount (initial value)", "setting": "[2]; [5]", "value": "71.9 % of weighed amount"},
      {"measurement": "ADH activity U/ml (initial value)", "setting": "[2]; [5]", "value": 120.2, "unit": "U/ml"},
      {"measurement": "higher residual activity of alcohol dehydrogenase compared to 0.5 mM cNAD", "setting": "[2]; 2 weeks at 35° C., 15 mM cNAD", "value": "approximately 45%"},
      {"measurement": "higher residual activity of alcohol dehydrogenase compared to 16 mM NAD solution", "setting": "[2]; 12 months at 2-8° C., 16 mM cNAD", "value": "approximately 20%"},
      {"measurement": "ADH activity % of weighed amount (initial value)", "setting": "[2]; Sample 1, pH 7.85, 0.5 mM cNAD", "value": "73.7 % of weighed amount"},
      {"measurement": "ADH activity U/ml (initial value)", "setting": "[2]; Sample 1, pH 7.85, 0.5 mM cNAD", "value": 123.1, "unit": "U/ml"},
      {"measurement": "ADH activity after 2 weeks at 2-8° C.", "setting": "[2]; Sample 1, pH 7.85, 0.5 mM cNAD", "value": "93.8 % of initial value"},
      {"measurement": "ADH activity after 2 weeks at 35° C.", "setting": "[2]; Sample 1, pH 7.85, 0.5 mM cNAD", "value": "31.1 % of initial value"},
      {"measurement": "ADH activity % of weighed amount (initial value)", "setting": "[2]; Sample 2, pH 7.85, 1 mM cNAD", "value": "75.3 % of weighed amount"},
      {"measurement": "ADH activity U/ml (initial value)", "setting": "[2]; Sample 2, pH 7.85, 1 mM cNAD", "value": 125.8, "unit": "U/ml"},
      {"measurement": "ADH activity after 2 weeks at 2-8° C.", "setting": "[2]; Sample 2, pH 7.85, 1 mM cNAD", "value": "97.7 % of initial value"},
      {"measurement": "ADH activity after 2 weeks at 35° C.", "setting": "[2]; Sample 2, pH 7.85, 1 mM cNAD", "value": "45.5 % of initial value"},
      {"measurement": "ADH activity % of weighed amount (initial value)", "setting": "[2]; Sample 3, pH 7.85, 5 mM cNAD", "value": "74.9 % of weighed amount"},
      {"measurement": "ADH activity U/ml (initial value)", "setting": "[2]; Sample 3, pH 7.85, 5 mM cNAD", "value": 125.1, "unit": "U/ml"},
      {"measurement": "ADH activity after 2 weeks at 2-8° C.", "setting": "[2]; Sample 3, pH 7.85, 5 mM cNAD", "value": "101.1 % of initial value"},
      {"measurement": "ADH activity after 2 weeks at 35° C.", "setting": "[2]; Sample 3, pH 7.85, 5 mM cNAD", "value": "74.1 % of initial value"},
      {"measurement": "ADH activity % of weighed amount (initial value)", "setting": "[2]; Sample 4, pH 7.85, 15 mM cNAD", "value": "74.1 % of weighed amount"},
      {"measurement": "ADH activity U/ml (initial value)", "setting": "[2]; Sample 4, pH 7.85, 15 mM cNAD", "value": 123.7, "unit": "U/ml"},
      {"measurement": "ADH activity after 2 weeks at 2-8° C.", "setting": "[2]; Sample 4, pH 7.85, 15 mM cNAD", "value": "104.0 % of initial value"},
      {"measurement": "ADH activity after 2 weeks at 35° C.", "setting": "[2]; Sample 4, pH 7.85, 15 mM cNAD", "value": "77.6 % of initial value"},
      {"measurement": "residual activity of diaphorase compared to formulation containing NAD", "setting": "diaphorase", "value": "considerably increased residual activity"},
      {"measurement": "Enzyme activity, glucose dehydrogenase", "setting": "[3]; 0 weeks (start of storage)", "value": 19.8, "unit": "U/cm^2"},
      {"measurement": "Enzyme activity, glucose dehydrogenase", "setting": "[3]; DT (35° C.), 6 weeks", "value": 19.8, "unit": "U/cm^2"},
      {"measurement": "Enzyme activity, glucose dehydrogenase", "setting": "[3]; DT (35° C.), 9 weeks", "value": 20.2, "unit": "U/cm^2"},
      {"measurement": "Enzyme activity, glucose dehydrogenase", "setting": "[3]; DT (35° C.), 12 weeks", "value": 17.2, "unit": "U/cm^2"},
      {"measurement": "Enzyme activity, glucose dehydrogenase", "setting": "[3]; DT (35° C.), 18 weeks", "value": 16.9, "unit": "U/cm^2"},
      {"measurement": "Enzyme activity, glucose dehydrogenase", "setting": "[3]; GT (30° C.), 12 weeks", "value": 17.6, "unit": "U/cm^2"},
      {"measurement": "Enzyme activity, glucose dehydrogenase", "setting": "[3]; GT (30° C.), 18 weeks", "value": 16.8, "unit": "U/cm^2"},
      {"measurement": "Enzyme activity, glucose dehydrogenase", "setting": "[3]; HT (45° C.), 6 weeks", "value": 19.0, "unit": "U/cm^2"},
      {"measurement": "Enzyme activity, glucose dehydrogenase", "setting": "[3]; HT (45° C.), 9 weeks", "value": 18.8, "unit": "U/cm^2"},
      {"measurement": "Enzyme activity, glucose dehydrogenase", "setting": "[3]; KS (5° C.), 6 weeks", "value": 20.4, "unit": "U/cm^2"},
      {"measurement": "Enzyme activity, glucose dehydrogenase", "setting": "[3]; KS (5° C.), 9 weeks", "value": 21.2, "unit": "U/cm^2"},
      {"measurement": "Enzyme activity, glucose dehydrogenase", "setting": "[3]; KS (5° C.), 12 weeks", "value": 18.5, "unit": "U/cm^2"},
      {"measurement": "Enzyme activity, glucose dehydrogenase", "setting": "[3]; KS (5° C.), 18 weeks", "value": 18.8, "unit": "U/cm^2"},
      {"measurement": "Enzyme activity, glucose dehydrogenase", "setting": "[3]; RT (25° C.), 6 weeks", "value": 20.7, "unit": "U/cm^2"},
      {"measurement": "Enzyme activity, glucose dehydrogenase", "setting": "[3]; RT (25° C.), 9 weeks", "value": 21.5, "unit": "U/cm^2"},
      {"measurement": "Enzyme activity, glucose dehydrogenase", "setting": "[3]; RT (25° C.), 12 weeks", "value": 18.0, "unit": "U/cm^2"},
      {"measurement": "Enzyme activity, glucose dehydrogenase", "setting": "[3]; RT (25° C.), 18 weeks", "value": 17.7, "unit": "U/cm^2"},
      {"measurement": "TM", "setting": "alcohol dehydrogenase", "value": 55.4, "unit": "°C"},
      {"measurement": "ΔHcal", "setting": "alcohol dehydrogenase", "value": 310, "unit": "kcal/mol"},
      {"measurement": "TM", "setting": "D-lactate dehydrogenase", "value": 59.1, "unit": "°C"},
      {"measurement": "ΔHcal", "setting": "D-lactate dehydrogenase", "value": 19, "unit": "kcal/mol"},
      {"measurement": "TM", "setting": "[4]", "value": 61.5, "unit": "°C"},
      {"measurement": "ΔHcal", "setting": "[4]", "value": 82, "unit": "kcal/mol"},
      {"measurement": "TM", "setting": "malate dehydrogenase", "value": 43.2, "unit": "°C"},
      {"measurement": "ΔHcal", "setting": "malate dehydrogenase", "value": 340, "unit": "kcal/mol"}
    ]}
  ]
}
